Measured values taken from US20240182436A1, “SUBSTITUTED SULFONAMIDE-CHROMAN COMPOUNDS, AND PHARMACEUTICAL COMPOSITIONS, AND METHODS OF USE THEREOF” (priority 2021, published 2024).

test system: Harmaline-induced tremor; experiment: Harmaline-induced Tremor Model; format: in vivo; conditions: Mus musculus, ip, adult male CD1 mice; test article 30 mg/kg i.p.; harmaline 30 mg/kg i.p.; read-out: Tremor Suppression Activity (magnitude of tremor suppression in percent compared to vehicle)
From the text: Harmaline-induced Tremor: Harmaline-induced tremor is widely recognized as an animal model of Essential Tremor (ET). Following acute administration, harmaline produces an 8-16 Hz tremor in rodents, cats, and monkeys that, like ET, is postural and kinetic, involving appendicular and axial musculature (Handforth, A. (2012). Harmaline tremor: underlying mechanisms in a potential animal model of essential tremor. Tremor and Other Hyperkinetic Movements (NY), 2, 02-92-769-1; Handforth, A. (2016). Linking Essential Tremor to the Cerebellum-Animal Model Evidence. Cerebellum, 15(3), 285-298; LeDoux, M. (2005). Harmaline tremor. In Movement Disorders. Elsevier Inc.; Louis, E. D. (2014). Re-thinking the biology of essential tremor: From models to morphology. Parkinsonism and Related Disorders, 20 (SUPPL.1), S88-S93). […] Clinical agents that suppress ET in patients are generally effective in the harmaline-induced tremor model (Handforth 2016). Following acute dosing of harmaline in mice, the tremor frequency (10-20 Hz) is typically recorded using an automated force plate-based system.
Procedure: Tremor activity was measured using a custom-made testing apparatus containing a piezoelectric sensing platform which was connected to an amplifier (A-M Systems model 1700). Adult male CD1 mice were brought to the experiment room for acclimatization 1 h prior to testing. Mice were first placed inside the testing apparatus for 10 min baseline habituation. After the initial habituation, mice were treated with vehicle (10 ml/kg) or test article (30 mg/kg, i.p.) and placed back in the apparatus for an additional 20 min baseline recording. Subsequently, animals were injected with harmaline (30 mg/kg, i.p.) and tremor activity was measured for 20 min. The electric signal of tremor activity was amplified at a sampling rate of 512 Hz with a multichannel amplifier and then acquired, quantized, and digitized by a data acquisition unit (CED Micro 1401). The software Spike2 (v 7.07, Cambridge Electronic Design, Cambridge, UK) was used to analyze the tremor signal by performing Fourier transformation of the data into frequency spectra. Changes in absolute power were expressed relative to each animal's 20-min baseline for the frequencies of 10-20 Hz. Comparisons between treatment and respective vehicle groups were assessed with two-tailed, Student's t-test. The level of statistical significance was defined as p<0.05 (see, e.g., Table 2.1) The magnitude of tremor suppression in percent compared to vehicle is shown in Table 2.2.
A tremor suppression score was defined as the magnitude of tremor suppression in percent compared to vehicle: ≤24% (D), 25-55% (C), 56-70% (B) and 71-100% (A). Not tested (---).

Row | SMILES | inhibition in vivo at 30 mg/kg [%]
1 | CC[C@H]1C[C@@H](CS(N)(=O)=O)c2ccc(F)cc2O1 (stereo in doubt) [Compound 12, ((2S*,4R*)-2-ethyl-7-fluorochroman-4-yl)methanesulfonamide] | 56 to 70
2 | CC[C@H]1COc2cc(F)ccc2[C@H]1CS(N)(=O)=O (stereo in doubt) [Compound 19, ((3R*,4S*)-3-ethyl-7-fluorochroman-4-yl)methanesulfonamide] | ≤ 24
3 | CC[C@@H]1COc2cc(F)ccc2[C@@H]1CS(N)(=O)=O (stereo in doubt) [Compound 20, ((3S*,4R*)-3-ethyl-7-fluorochroman-4-yl)methanesulfonamide] | 71 to 100
4 | CC[C@@H]([C@H]1CCOc2cc(F)ccc21)S(N)(=O)=O (stereo in doubt) [Compound 25, (S*)-1-((S*)-7-fluorochroman-4-yl)propane-1-sulfonamide] | 56 to 70
5 | CC[C@H]([C@@H]1CCOc2cc(F)ccc21)S(N)(=O)=O (stereo in doubt) [Compound 26, (R*)-1-((R*)-7-fluorochroman-4-yl)propane-1-sulfonamide] | 71 to 100
6 | C[C@@H]1C[C@H](CS(N)(=O)=O)c2ccccc2O1 (stereo in doubt) [Compound 33, ((2R*,4S*)-2-methylchroman-4-yl)methanesulfonamide] | 25 to 55
7 | C[C@H]1C[C@@H](CS(N)(=O)=O)c2ccccc2O1 (stereo in doubt) [Compound 34, ((2S*,4R*)-2-methylchroman-4-yl)methanesulfonamide] | 56 to 70
8 | C[C@H]1COc2ccccc2[C@H]1CS(N)(=O)=O (stereo in doubt) [Compound 39, ((3R*,4S*)-3-methylchroman-4-yl)methanesulfonamide] | 25 to 55
9 | C[C@@H]1COc2ccccc2[C@@H]1CS(N)(=O)=O (stereo in doubt) [Compound 40, ((3S*,4R*)-3-methylchroman-4-yl)methanesulfonamide] | 25 to 55
10 | C[C@@H]1COc2ccccc2[C@H]1CS(N)(=O)=O (stereo in doubt) [Compound 41, ((3S*,4S*)-3-methylchroman-4-yl)methanesulfonamide] | 56 to 70
11 | C[C@H]1COc2ccccc2[C@@H]1CS(N)(=O)=O (stereo in doubt) [Compound 42, ((3R*,4R*)-3-methylchroman-4-yl)methanesulfonamide] | ≤ 24
12 | CN([C@H]1CCOc2cc(F)ccc21)S(N)(=O)=O (stereo in doubt) [Compound 69, 4(S*))-7-fluoro-4-[methyl(sulfamoyl)amino]-3,4-dihydro-2(H)-chromene] | ≤ 24
13 | CN([C@@H]1CCOc2cc(F)ccc21)S(N)(=O)=O (stereo in doubt) [Compound 70, 4(R*))-7-fluoro-4[methyl(sulfamoyl)amino]-3,4-dihydro-2(H)-chromene] | ≤ 24
14 | NS(=O)(=O)N[C@H]1CCOc2cc(F)ccc21 (stereo in doubt) [Compound 71, 4(S*))-7-fluoro-4-(sulfamoylamino)-3,4-dihydro-2(H)-chromene] | 56 to 70
15 | NS(=O)(=O)N[C@@H]1CCOc2cc(F)ccc21 (stereo in doubt) [Compound 72, 4(R*))-7-fluoro-4-(sulfamoylamino)-3,4-dihydro-2(H)-chromene] | 25 to 55
16 | C[C@@H]1COc2cc(F)ccc2[C@@H]1NS(N)(=O)=O (stereo in doubt) [Compound 73, (3(S*),4(R*))-7-fluoro-3-methyl-4-(sulfamoylamino)-3,4-dihydro-2(H)-chromene] | 56 to 70
17 | C[C@H]1COc2cc(F)ccc2[C@H]1NS(N)(=O)=O (stereo in doubt) [Compound 74, (3(R*),4(S*))-7-fluoro-3-methyl-4-(sulfamoylamino)-3,4-dihydro-2(H)-chromene] | 56 to 70

same assay, conditions: adult male CD1 mice; test article 30 mg/kg i.p.; harmaline 30 mg/kg i.p.; 10-20 Hz power over 20 min relative to 20-min baseline

Row | SMILES | Tremor power relative to baseline (mean ± s.e.m.)
18 | CC[C@H]1C[C@@H](CS(N)(=O)=O)c2ccc(F)cc2O1 (stereo in doubt) [Compound 12, ((2S*,4R*)-2-ethyl-7-fluorochroman-4-yl)methanesulfonamide] | 196 ± 59
